Source: PMC8333053, “Synthesis and biological screening of new thiadiazolopyrimidine-based polycyclic compounds” (Scientific Reports, 2021)
Values after ≈ are worked out from the molar mass of the structure shown.

What was measured:
Bacillus cereus UW85 = assay: Antibacterial MIC, two-fold serial dilution; assay type: cell-based; conditions: Gram +ve bacteria, LB broth, 37°C, 24 h, visual (no turbidity), read-out: MIC B. cereus
Experimental: (§1) The antimicrobial activity of the synthesized thiadiazolopyrimidine compounds was studied toward diverse pathogenic strains, such as gram-positive bacteria (Staphylococcus aureus ATCC 29213 and Bacillus cereus UW85), gram-negative bacteria (Escherichia coli ATCC 12435 and Pseudomonas aeruginosa ATCC 29260), and fungi (Candida albicans and Aspergillus fumigatus 293). The assessment was performed through the two-fold dilution technique using Ampicillin (antibacterial) and Fluconazole (antifungal) as the reference drugs[28],[29]. The minimal inhibitory concentration (MICs, µg/mL) of the synthesized derivatives for prohibiting microbial growth was determined through the visual detection (no turbidity) technique.
(§2) The synthesized thiadiazolopyrimidine-based compounds were evaluated and adopted for antibacterial and antifungal effectiveness using the approved procedure[38],[39].
(§3) Minimal inhibitory concentrations (MICs) were determined by serial dilution technique using 96-multiwell microtiter plates. The investigated compounds were dissolved in DMSO 100% to prepare stock solutions of 5000 µg/mL. Two-fold serial dilutions of the dissolved compounds were performed in LB broth providing eight different concentrations (1250, 625, 312.5, 156, 78, 39, 19.5 µg/mL). Overnight cultures of microorganisms were diluted to 1 ×10^6 CFU/mL in LB broth, and 20 mL of the diluted cultures were added to the test solutions (50 mL) in the wells (one well per concentration per bacterial strain). The plates were incubated at 37°C for 24 h. MIC was detected visually as the least concentration inhibiting bacterial growth (no turbidity) and the activity of the tested compounds was estimated in comparison to ampicillin.

[1] = system: Escherichia coli ATCC 12435; assay: Antibacterial MIC, two-fold serial dilution; assay type: cell-based; conditions: ATCC12435, Gram −ve bacteria, LB broth, 37°C, 24 h, visual (no turbidity)
Experimental: as §1, §2, §3

[2] = system: Pseudomonas aeruginosa ATCC 29260; assay: Antibacterial MIC, two-fold serial dilution; assay type: cell-based; conditions: ATCC29260, Gram −ve bacteria, LB broth, 37°C, 24 h, visual (no turbidity), read-out: MIC P. aeruginosa
Experimental: as §1, §2, §3

[3] = system: Staphylococcus aureus ATCC 29213; assay: Antibacterial MIC, two-fold serial dilution; assay type: cell-based; conditions: ATCC29213, Gram +ve bacteria, LB broth, 37°C, 24 h, visual (no turbidity), read-out: MIC S. aureus
Experimental: as §1, §2, §3

[4] = system: Aspergillus fumigatus 293; assay: Antifungal MIC, two-fold serial dilution; assay type: cell-based; conditions: Fungi, glucose minimal medium, 30°C, 48 h, visual (no turbidity)
Experimental: as §1, §2
(§4) Minimal inhibitory concentrations (MICs) were determined by serial dilution technique using 96-multiwell microtiter plates. The investigated compounds were dissolved in DMSO 100% to prepare stock solutions of 5000 µg/mL. Two-fold serial dilutions of the dissolved compounds were performed in glucose minimal medium providing eight different concentrations (1250, 625, 312.5, 156, 78, 39, 19.5 µg/mL). The microorganisms were diluted to 1 ×10^3 SFU/mL in glucose minimal medium, and 20 µL of the diluted culture was added to the test solutions (50 µL) in the wells (one well per concentration). The plates were incubated at 30°C for 48 h. MIC was detected visually as the least concentration inhibiting fungal growth (no turbidity) and the activity of the tested compounds was estimated in comparison to fluconazole.

Candida albicans = assay: Antifungal MIC, two-fold serial dilution; assay type: cell-based; conditions: Fungi, glucose minimal medium, 30°C, 48 h, visual (no turbidity)
Experimental: as §1, §2, §4

Hep-2 = assay: MTT cytotoxicity assay; assay type: cell-based; conditions: Homo sapiens, HEp-2, 72 h, 3 days
Experimental: (§5) The cytotoxicity of the prepared tri-and tetra-cyclic thiadiazolopyrimidine compounds were examined toward various cancer cell lines, such as liver and breast cancer (MCF-7), prostate cancer (PC3), laryngeal carcinoma (Hep-2), carcinoma (HepG2), and standard normal fibroblast cells (WI38) using the MTT assay[33] at the National Research Centre (Egypt). The cytotoxicity (Table 3) toward 50% inhibition of the cell viability (IC50 values) was assessed using 5-fluorouracil (5-Fu) as the standard anticancer drug.
(§6) The synthesized compounds were subjected to the MTT cytotoxicity assay on the basis of the cited literature.
(§7) MTT cytotoxicity assay: The technical method of MTT assay depends on the reduction of yellow 3-(4,5-methyl-2-thiazolyl)-2,5-diphenyl-2H-tetrazolium bromide (MTT) into purple formazan product, mainly by mitochondrial reductase activity inside the living cells. The cells used in cytotoxicity assay were cultured in RPMI 1640 medium supplemented with 10% fetal calf serum. Cells suspended in the medium (2×10^4 cells/mL) were plated in 96-well culture plates and incubated at 37 °C in a 5% CO2 incubator for 12 hours. The tested sample (2 μL) was added to the cells (2×10^4) in 96-well plates and cultured at 37 °C for 3 days. The cultured cells were mixed with 20 μL of MTT solution and incubated for 4 hours at 37 °C. The supernatant was carefully removed from each well, the formazan crystals were dissolved after addition of DMSO (100 μL) for each well to form the cellular reduction of MTT. After mixing with a mechanical plate mixer, the absorbance of each well was measured by a microplate reader using a test wavelength of 570 nm. The results were expressed as the IC50 values, which inducing 50% inhibition of cell growth of the treated cells when compared to the growth of control cells.

PC3 = assay: MTT cytotoxicity assay; assay type: cell-based; conditions: Homo sapiens, PC-3, 72 h, 3 days
Experimental: as §5, §6, §7

HepG2 = assay: MTT cytotoxicity assay; assay type: cell-based; conditions: Homo sapiens, HepG2, 72 h, 3 days
Experimental: as §5, §6, §7

MCF-7 = assay: MTT cytotoxicity assay; assay type: cell-based; conditions: Homo sapiens, MCF7, 72 h, 3 days
Experimental: as §5, §6, §7

| SMILES | MIC (Bacillus cereus UW85) | MIC [1] | MIC [2] | MIC [3] | MIC [4] | MIC (Candida albicans) | IC50 (Hep-2) | IC50 (PC3) | IC50 (HepG2) | IC50 (MCF-7) | melting point |
| --- | --- | --- | --- | --- | --- | --- | --- | --- | --- | --- | --- |
| COc1ccc(N=Nc2c(O)nn3c(N)c4c(=O)nc5scnn5c4nc23)cc1 [Compound 17b, 6-Amino-9-hydroxy-10-(4-methoxyphenylazo)-5H-pyrazolo[1′,5′:1,2]pyrimido[5,4-e][1,3,4]thiadiazolo[3,2-a]pyrimidin-5-one] | 625 µg/mL (≈ 1530 µM) | 19.5 µg/mL (≈ 47.6 µM) | 39 µg/mL (≈ 95.3 µM) | 1250 µg/mL (≈ 3050 µM) | 1250 µg/mL (≈ 3050 µM) | 1250 µg/mL (≈ 3050 µM) | 19 ± 0.4 µM | 36.8 ± 0.43 µM | 33.54 ± 0.25 µM | 8.84 ± 0.17 µM | 280 to 281 °C |
| Cc1nn(-c2ccccc2)c2c1C1C(=C(N)O2)C(=O)N=C2SC=NN21 (stereo not shown) [Compound 10b, 6-Amino-10-methyl-8-phenyl-8,10b-dihydro-5H-pyrazolo[4′,3′:5,6]pyrano[3,4-e][1,3,4]thiadiazolo[3,2-a]pyrimidin-5-one] | 625 µg/mL (≈ 1770 µM) | 312 µg/mL (≈ 887 µM) | 625 µg/mL (≈ 1770 µM) | 625 µg/mL (≈ 1770 µM) | > 1250 µg/mL | > 1250 µg/mL | 28.8 ± 1.8 µM | 27.3 ± 0.53 µM | 37.6 ± 1.26 µM | 27.4 ± 0.49 µM | 266 to 267 °C |
| Nc1nn(-c2ccccc2)c2c1c(=O)nc1scnn12 [Compound 5, 3-Amino-1-phenylpyrazolo[4,3-e][1,3,4]thiadiazolo[3,2-a]pyrimidin-4(1H)-one] | 625 µg/mL (≈ 2200 µM) | 1250 µg/mL (≈ 4400 µM) | 1250 µg/mL (≈ 4400 µM) | 625 µg/mL (≈ 2200 µM) | > 1250 µg/mL | 1250 µg/mL (≈ 4400 µM) | 61.2 ± 1.51 µM | 61.8 ± 1.68 µM | 19.2 ± 0.52 µM | 54.8 ± 1.48 µM | 254 to 255 °C |
| CC1=C(C#N)C2C(=C(N)O1)C(=O)N=C1SC=NN12 (stereo not shown) [Compound 9a, 6-Amino-9-cyano-8-methyl-5-oxo-5H,9aH-pyrano[3,4-e][1,3,4]thiadiazolo[3,2-a]pyrimidine] | 312 µg/mL (≈ 1200 µM) | 625 µg/mL (≈ 2390 µM) | 625 µg/mL (≈ 2390 µM) | 312 µg/mL (≈ 1200 µM) | > 1250 µg/mL | 312 µg/mL (≈ 1200 µM) | 20 ± 0.24 µM | 46.4 ± 1.07 µM | 33.2 ± 0.36 µM | 22.7 ± 0.29 µM | 264 to 265 °C |
| Nc1n[nH]c2c1c(=O)nc1scnn12 [Compound 4, 3-Aminopyrazolo[4,3-e][1,3,4]thiadiazolo[3,2-a]pyrimidin-4(1H)-one] | > 1250 µg/mL | > 1250 µg/mL | > 1250 µg/mL | 1250 µg/mL (≈ 6000 µM) | > 1250 µg/mL | > 1250 µg/mL | 78.4 ± 2.2 µM | 72.3 ± 2.18 µM | 15.4 ± 0.45 µM | 61.2 ± 1.11 µM | 281 to 282 °C |
